Experimental data as given in article PMC3409651 (Journal of agricultural and food chemistry, 2012).

Columns and labels:
[1] = Chemical stability of the tested compounds in potassium phosphate buffer; assay type: physicochemical; details: 50 mM potassium phosphate buffer (pH 7.4) at 37°C with 0.1% vitamin C
[2] = system: Sult in FVB mouse liver S9 fraction; assay: Sult activity measurements; assay type: in vitro ADME
[3] = system: Ugt in FVB mouse liver S9 fraction; details: male, 10 µM, pH 7.4
Sult = Sult activity measurements; assay type: in vitro ADME, mouse; details: male, FVB, mouse, liver S9 fraction, pH 7.4
Ugt = Ugt activity measurements; details: male, FVB, mouse, liver S9 fraction, pH 7.4
Sult and Ugt = assay: Sult-Ugt co-reaction system; assay type: in vitro ADME; details: male, FVB, mouse, liver S9 fraction
[4] = system: SULTs in human liver and duodenum S9 fractions; details: cited from earlier work
[5] = 10 µM substrate, Sult single reaction, FVB mice liver S9 fraction, n=3

| SMILES | time stable in buffer (chemical stability) [1] [min] | sulfation rate [2, 5] | other results |
| --- | --- | --- | --- |
| O=c1cc(-c2ccccc2O)oc2ccccc12 [2’-HF, 2’-hydroxyflavone] | 30 to 90 | 0.0719 ± 0.0030 nmol per min per mg of protein |  |
| O=c1c(O)c(-c2ccc(O)cc2)oc2ccccc12 [3,4’-diHF, 3,4’-dihydroxyflavone] | 30 to 90 |  |  |
| O=c1c(O)c(-c2ccccc2)oc2ccccc12 [3-HF, 3-hydroxyflavone] | 30 to 90 | 0.00 ± 0.00 nmol per min per mg of protein | sulfation by FVB mice liver S9 fraction (in words) ([2]; 5, 10 and 40 µM substrate, Sult single reaction): not sulfated |
| O=c1cc(-c2cccc(O)c2)oc2ccccc12 [3’-HF, 3’-hydroxyflavone] | 30 to 90 | 0.0312 ± 0.0095 nmol per min per mg of protein |  |
| O=c1cc(-c2ccc(O)cc2)oc2ccccc12 [4’-HF, 4’-hydroxyflavone] | 30 to 90 | 0.0793 ± 0.0031 nmol per min per mg of protein |  |
| O=c1cc(-c2ccccc2)oc2cc(O)cc(O)c12 [5,7-diHF, 5,7-dihydroxyflavone] |  |  | glucuronidation rate, 5-O-G [3]: 0.00 ± 0.00 nmol per min per mg of protein; glucuronidation rate, 7-O-G [3]: 1.0763 ± 0.0399 nmol per min per mg of protein; formation rate of 7-O-sulfate ([2]; male, FVB, mouse, 5 µM, pH 7.4): 0.0387 ± 0.0025 nmol per min per mg of protein |
| O=c1cc(-c2ccccc2)oc2cccc(O)c12 [5-HF, 5-hydroxyflavone] |  |  | sulfation rate ([2]; male, FVB, mouse, 10 µM, pH 7.4): 0.0524 ± 0.0019 nmol per min per mg of protein |
| O=c1cc(-c2ccccc2)oc2cc(O)c(O)cc12 [6,7-diHF, 6,7-dihydroxyflavone] |  |  | half-life at 10 µM (Sult): 244 ± 36.8 min; half-life at 10 µM (Ugt): 26.8 ± 1.32 min; half-life at 10 µM (Sult and Ugt): 21.2 ± 2.03 min |
| O=c1cc(-c2ccccc2)oc2ccc(O)cc12 [6-HF, 6-hydroxyflavone] | 30 to 90 | 0.0211 ± 0.0002 nmol per min per mg of protein |  |
| O=c1cc(-c2ccccc2)oc2cc(O)ccc12 [7-HF, 7-hydroxyflavone] | 30 to 90 | 0.0998 ± 0.0061 nmol per min per mg of protein | sulfation by SULTs (in words) [4]: sulfated |
